Reference: ChEMBL document CHEMBL2074324, “Multidrug resistance P-glycoprotein hampers the access of cortisol but not of corticosterone to mouse and human brain” (Endocrinology, 2001)

Biological target: ATP-dependent translocase ABCB1 (Mus musculus, UniProt P21447)
Assay: TP_TRANSPORTER: increase in brain concentration in mdr1a(-/-) mouse
Assay type: functional, organism-based
Details: in vivo

Sequence of ATP-dependent translocase ABCB1 (P21447 whole entry): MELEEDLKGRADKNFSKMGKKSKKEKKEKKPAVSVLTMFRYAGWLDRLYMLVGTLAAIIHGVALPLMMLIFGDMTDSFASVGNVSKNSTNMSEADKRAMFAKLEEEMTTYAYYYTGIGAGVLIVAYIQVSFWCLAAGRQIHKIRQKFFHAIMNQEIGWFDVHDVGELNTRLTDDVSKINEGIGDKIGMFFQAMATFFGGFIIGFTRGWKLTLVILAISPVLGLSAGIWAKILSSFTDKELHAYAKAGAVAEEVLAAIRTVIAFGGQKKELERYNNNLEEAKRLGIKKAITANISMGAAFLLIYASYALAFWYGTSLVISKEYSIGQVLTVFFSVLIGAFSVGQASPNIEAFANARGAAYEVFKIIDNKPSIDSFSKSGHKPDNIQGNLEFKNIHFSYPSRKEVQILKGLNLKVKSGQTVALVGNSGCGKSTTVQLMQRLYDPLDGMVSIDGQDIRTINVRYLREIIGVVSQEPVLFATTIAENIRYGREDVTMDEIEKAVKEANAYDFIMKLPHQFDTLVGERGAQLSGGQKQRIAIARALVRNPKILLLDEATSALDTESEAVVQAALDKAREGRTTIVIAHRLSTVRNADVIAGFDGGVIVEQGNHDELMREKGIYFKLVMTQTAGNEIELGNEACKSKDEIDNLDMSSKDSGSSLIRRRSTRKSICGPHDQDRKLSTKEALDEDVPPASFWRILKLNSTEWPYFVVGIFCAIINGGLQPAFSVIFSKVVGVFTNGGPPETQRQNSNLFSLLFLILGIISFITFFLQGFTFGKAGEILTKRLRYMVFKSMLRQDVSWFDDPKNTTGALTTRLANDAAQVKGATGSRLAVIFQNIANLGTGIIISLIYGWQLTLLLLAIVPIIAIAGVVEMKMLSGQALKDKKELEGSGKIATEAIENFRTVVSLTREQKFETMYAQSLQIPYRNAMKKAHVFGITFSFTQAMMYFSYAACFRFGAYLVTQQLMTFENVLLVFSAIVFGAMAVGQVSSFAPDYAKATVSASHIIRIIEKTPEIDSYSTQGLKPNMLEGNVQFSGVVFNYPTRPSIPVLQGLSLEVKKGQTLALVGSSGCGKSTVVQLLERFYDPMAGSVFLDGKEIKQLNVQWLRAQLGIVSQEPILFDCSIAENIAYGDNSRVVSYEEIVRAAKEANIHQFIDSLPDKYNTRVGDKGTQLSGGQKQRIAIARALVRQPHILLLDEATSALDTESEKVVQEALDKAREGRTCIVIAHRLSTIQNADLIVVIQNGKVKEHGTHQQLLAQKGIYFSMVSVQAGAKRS

Compound: C[C@]12CCC(=O)C=C1CC[C@@H]1[C@@H]2[C@@H](O)C[C@@]2(C)[C@H]1CC[C@]2(O)C(=O)CO [HYDROCORTISONE]
- Activity: substrate [+]
